Results published in the supplement of paper PMC10307832.

Key:
Assay in all cases: relative viability (nuclei count vs DMSO), 5 days (fraction); higher = more cells survive
A-427 = system: A-427
Procedure, shortened: (§1)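 Five library-drug doses in √10 steps were combined with a fixed anchor-drug dose, or a single drug was given alone, by pin tool to lung cancer cell lines in 1536-well plates the day after seeding. Nuclei were stained and counted after 5 days. Relative viability is the nuclei count in treated wells over that in vehicle wells, taken as the median of duplicate plates.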

COR-L 105 = system: COR-L 105
Procedure, shortened: as §1

ChaGo-K-1 = system: ChaGo-K-1
Procedure, shortened: as §1

EKVX = system: EKVX
Procedure, shortened: as §1

EMC-BAC-2 = system: EMC-BAC-2
Procedure, shortened: as §1

H3255 = system: H3255
Procedure, shortened: as §1

HCC-366 = system: HCC-366
Procedure, shortened: as §1

LK-2 = system: LK-2
Procedure, shortened: as §1

LOU-NH91 = system: LOU-NH91
Procedure, shortened: as §1

NCI-H1563 = system: NCI-H1563
Procedure, shortened: as §1

NCI-H1666 = system: NCI-H1666
Procedure, shortened: as §1

NCI-H1734 = system: NCI-H1734
Procedure, shortened: as §1

NCI-H1755 = system: NCI-H1755
Procedure, shortened: as §1

NCI-H1975 = system: NCI-H1975
Procedure, shortened: as §1

NCI-H2170 = system: NCI-H2170
Procedure, shortened: as §1

NCI-H23 = system: NCI-H23
Procedure, shortened: as §1

NCI-H441 = system: NCI-H441
Procedure, shortened: as §1

NCI-H520 = system: NCI-H520
Procedure, shortened: as §1

NCI-H596 = system: NCI-H596
Procedure, shortened: as §1

PC-3 [JPC-3] = system: PC-3 [JPC-3]
Procedure, shortened: as §1

SK-MES-1 = system: SK-MES-1
Procedure, shortened: as §1

SW 900 = system: SW 900
Procedure, shortened: as §1

## CCN(CC)CCCCNc1ncc2cc(-c3cc(OC)cc(OC)c3)c(NC(=O)NC(C)(C)C)nc2n1 + COc1cc2c(Oc3ccc(NC(=O)C4(C(=O)Nc5ccc(F)cc5)CC4)cc3F)ccnc2cc1OCCCN1CCOCC1 [Foretinib] (partner 0.25 µM)
A-427; first compound 0.01 µM
  relative viability: 1.18
A-427; first compound 0.03162 µM
  relative viability: 1.11
A-427; first compound 0.1 µM
  relative viability: 1.18
A-427; first compound 0.3162 µM
  relative viability: 1.1
A-427; first compound 1 µM
  relative viability: 0.99
COR-L 105; first compound 0.01 µM
  relative viability: 1.27
COR-L 105; first compound 0.03162 µM
  relative viability: 0.994
COR-L 105; first compound 0.1 µM
  relative viability: 1.23
COR-L 105; first compound 0.3162 µM
  relative viability: 0.909
COR-L 105; first compound 1 µM
  relative viability: 1.15
ChaGo-K-1; first compound 0.01 µM
  relative viability: 0.903
ChaGo-K-1; first compound 0.03162 µM
  relative viability: 1.05
ChaGo-K-1; first compound 0.1 µM
  relative viability: 0.936
ChaGo-K-1; first compound 0.3162 µM
  relative viability: 0.956
ChaGo-K-1; first compound 1 µM
  relative viability: 0.757
EKVX; first compound 0.01 µM
  relative viability: 0.589
EKVX; first compound 0.03162 µM
  relative viability: 0.471
EKVX; first compound 0.1 µM
  relative viability: 0.781
EKVX; first compound 0.3162 µM
  relative viability: 0.949
EKVX; first compound 1 µM
  relative viability: 0.758
EMC-BAC-2; first compound 0.01 µM
  relative viability: 0.54
EMC-BAC-2; first compound 0.03162 µM
  relative viability: 1.02
EMC-BAC-2; first compound 0.1 µM
  relative viability: 0.983
EMC-BAC-2; first compound 0.3162 µM
  relative viability: 1.13
EMC-BAC-2; first compound 1 µM
  relative viability: 0.952
H3255; first compound 0.01 µM
  relative viability: 0.898
H3255; first compound 0.03162 µM
  relative viability: 0.915
H3255; first compound 0.1 µM
  relative viability: 1.04
H3255; first compound 0.3162 µM
  relative viability: 0.943
H3255; first compound 1 µM
  relative viability: 0.85
HCC-366; first compound 0.01 µM
  relative viability: 0.951
HCC-366; first compound 0.03162 µM
  relative viability: 0.941
HCC-366; first compound 0.1 µM
  relative viability: 1.05
HCC-366; first compound 0.3162 µM
  relative viability: 0.981
HCC-366; first compound 1 µM
  relative viability: 0.999
LK-2; first compound 0.01 µM
  relative viability: 1.06
LK-2; first compound 0.03162 µM
  relative viability: 1.13
LK-2; first compound 0.1 µM
  relative viability: 1.66
LK-2; first compound 0.3162 µM
  relative viability: 0.962
LK-2; first compound 1 µM
  relative viability: 0.663
LOU-NH91; first compound 0.01 µM
  relative viability: 0.927
LOU-NH91; first compound 0.03162 µM
  relative viability: 0.916
LOU-NH91; first compound 0.1 µM
  relative viability: 0.959
LOU-NH91; first compound 0.3162 µM
  relative viability: 0.977
LOU-NH91; first compound 1 µM
  relative viability: 0.912
NCI-H1563; first compound 0.01 µM
  relative viability: 0.921
NCI-H1563; first compound 0.03162 µM
  relative viability: 0.896
NCI-H1563; first compound 0.1 µM
  relative viability: 1.03
NCI-H1563; first compound 0.3162 µM
  relative viability: 0.907
NCI-H1563; first compound 1 µM
  relative viability: 0.748
NCI-H1666; first compound 0.01 µM
  relative viability: 0.936
NCI-H1666; first compound 0.03162 µM
  relative viability: 0.979
NCI-H1666; first compound 0.1 µM
  relative viability: 0.977
NCI-H1666; first compound 0.3162 µM
  relative viability: 0.892
NCI-H1666; first compound 1 µM
  relative viability: 0.919
NCI-H1734; first compound 0.01 µM
  relative viability: 0.863
NCI-H1734; first compound 0.03162 µM
  relative viability: 0.828
NCI-H1734; first compound 0.1 µM
  relative viability: 0.83
NCI-H1734; first compound 0.3162 µM
  relative viability: 0.943
NCI-H1734; first compound 1 µM
  relative viability: 0.694
NCI-H1755; first compound 0.01 µM
  relative viability: 0.986
NCI-H1755; first compound 0.03162 µM
  relative viability: 0.92
NCI-H1755; first compound 0.1 µM
  relative viability: 0.969
NCI-H1755; first compound 0.3162 µM
  relative viability: 0.936
NCI-H1755; first compound 1 µM
  relative viability: 0.882
NCI-H1975; first compound 0.01 µM
  relative viability: 0.931
NCI-H1975; first compound 0.03162 µM
  relative viability: 0.956
NCI-H1975; first compound 0.1 µM
  relative viability: 1.29
NCI-H1975; first compound 0.3162 µM
  relative viability: 1.04
NCI-H1975; first compound 1 µM
  relative viability: 0.867
NCI-H2170; first compound 0.01 µM
  relative viability: 0.929
NCI-H2170; first compound 0.03162 µM
  relative viability: 1.05
NCI-H2170; first compound 0.1 µM
  relative viability: 0.961
NCI-H2170; first compound 0.3162 µM
  relative viability: 1.08
NCI-H2170; first compound 1 µM
  relative viability: 0.999
NCI-H23; first compound 0.01 µM
  relative viability: 1.01
NCI-H23; first compound 0.03162 µM
  relative viability: 0.831
NCI-H23; first compound 0.1 µM
  relative viability: 1.23
NCI-H23; first compound 0.3162 µM
  relative viability: 0.984
NCI-H23; first compound 1 µM
  relative viability: 0.955
NCI-H441; first compound 0.01 µM
  relative viability: 1.02
NCI-H441; first compound 0.03162 µM
  relative viability: 1.19
NCI-H441; first compound 0.1 µM
  relative viability: 1.04
NCI-H441; first compound 0.3162 µM
  relative viability: 1.04
NCI-H441; first compound 1 µM
  relative viability: 0.918
NCI-H520; first compound 0.01 µM
  relative viability: 0.677
NCI-H520; first compound 0.03162 µM
  relative viability: 0.834
NCI-H520; first compound 0.1 µM
  relative viability: 1.15
NCI-H520; first compound 0.3162 µM
  relative viability: 0.543
NCI-H520; first compound 1 µM
  relative viability: 0.326
NCI-H596; first compound 0.01 µM
  relative viability: 0.852
NCI-H596; first compound 0.03162 µM
  relative viability: 0.919
NCI-H596; first compound 0.1 µM
  relative viability: 0.943
NCI-H596; first compound 0.3162 µM
  relative viability: 0.931
NCI-H596; first compound 1 µM
  relative viability: 0.73
PC-3 [JPC-3]; first compound 0.01 µM
  relative viability: 1.08
PC-3 [JPC-3]; first compound 0.03162 µM
  relative viability: 1.07
PC-3 [JPC-3]; first compound 0.1 µM
  relative viability: 1.13
PC-3 [JPC-3]; first compound 0.3162 µM
  relative viability: 1.16
PC-3 [JPC-3]; first compound 1 µM
  relative viability: 1.04
SK-MES-1; first compound 0.01 µM
  relative viability: 0.973
SK-MES-1; first compound 0.03162 µM
  relative viability: 1.17
SK-MES-1; first compound 0.1 µM
  relative viability: 0.88
SK-MES-1; first compound 0.3162 µM
  relative viability: 1.12
SK-MES-1; first compound 1 µM
  relative viability: 0.889
SW 900; first compound 0.01 µM
  relative viability: 0.891
SW 900; first compound 0.03162 µM
  relative viability: 0.733
SW 900; first compound 0.3162 µM
  relative viability: 0.745
SW 900; first compound 1 µM
  relative viability: 0.557
